Source: US11939334B2, “Substituted pyrimido[4,5-b][1,4]diazepines as PLK1 degradation inducers” (UPPTHERA, INC., priority 2021, dated 2024)

Tests used:
[1] = biological target: T1, PLK1 (Homo sapiens, UniProt P53350); assay: Luciferase assay for PLK1 in HeLa LgBit (Plk1-HiBit KI) cell line; format: cell-based; conditions: 300 nM compound, luminescence after 9 hours
T1 construct: endogenous in cells; host or cells: HeLa cells stably expressing LgBit, with CRISPR/Cas9 knock-in of HiBit at the endogenous PLK1 locus
Method in brief: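 HeLa LgBit cells with endogenous Plk1 C-terminally HiBiT-tagged by CRISPR knock-in were synchronized by 2 mM thymidine block for 24 h, then released and seeded. After 18 h, Endurazine was added and compounds were dosed at 300 nM. Luminescence was tracked in real time; activity is the ratio to DMSO.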

[2] = tested on: H526 cell line; assay: Cell viability assay for H526 cell line; format: cell-based; conditions: Homo sapiens, NCI-H526, 120 h; H526 cells, 5 days, EZ-Cytox, 0.46-3000 nM
Method in brief: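 NCI-H526 cells exposed to compounds for 5 days in a CO2 incubator; viability read as absorbance at 450 nm after 3 min plate shaking; IC50 derived from treatment response.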

[3] = tested on: MRC-5 cell line; assay: Cell viability assay for MRC-5 cell line; conditions: for IC50: Homo sapiens, MRC5, 120 h, read-out: Activity: IC50 value (nM) to MRC-5 cell line
Description: (§1) Cell Viability Assay for MRC-5 Cell Line
(1) Culture of MRC-5 Cell Line
(§2) The MRC-5 cell line was purchased from Korea Cell Line Bank (KCLB), Seoul, Korea. Passage of cultured cells was maintained within P15.
(§3) (2) Treatment of Compounds of the Present Invention
(§4) 6×10^3 cells were seeded for each well of a 96-well plate (SPL), and the cells were cultured in total volume of 150 μL.
(§5) Each well was mixed with a medium and treated, and the volume was set to 50 μL, so that the total volume of each well was 200 μL. Then, it was cultured in 37° C.
(§6) The following compounds were used as comparative examples, and the cell viability assay was performed in the same manner as in the compounds of Examples.
(3) Cytotoxicity Experiment
(§7) After treating EZ-Cytox (DOGEN, Cat. NO. EZ-3000, Lot. No. DLS2112) 20 μL in each well of completely cultured plate, it was cultured in 37° C. CO2 incubator for 4 hours. […] The data were converted into graphs using the Prism (ver. 9) program.

[4] = Cell viability assay for MRC-5 cell line; conditions: human
Description: as §1
(1) Culture of MRC-5 Cell Line
as §2, §3, §4, §5, §6
(3) Cytotoxicity Experiment
as §7

T1 sequence (P53350 whole entry): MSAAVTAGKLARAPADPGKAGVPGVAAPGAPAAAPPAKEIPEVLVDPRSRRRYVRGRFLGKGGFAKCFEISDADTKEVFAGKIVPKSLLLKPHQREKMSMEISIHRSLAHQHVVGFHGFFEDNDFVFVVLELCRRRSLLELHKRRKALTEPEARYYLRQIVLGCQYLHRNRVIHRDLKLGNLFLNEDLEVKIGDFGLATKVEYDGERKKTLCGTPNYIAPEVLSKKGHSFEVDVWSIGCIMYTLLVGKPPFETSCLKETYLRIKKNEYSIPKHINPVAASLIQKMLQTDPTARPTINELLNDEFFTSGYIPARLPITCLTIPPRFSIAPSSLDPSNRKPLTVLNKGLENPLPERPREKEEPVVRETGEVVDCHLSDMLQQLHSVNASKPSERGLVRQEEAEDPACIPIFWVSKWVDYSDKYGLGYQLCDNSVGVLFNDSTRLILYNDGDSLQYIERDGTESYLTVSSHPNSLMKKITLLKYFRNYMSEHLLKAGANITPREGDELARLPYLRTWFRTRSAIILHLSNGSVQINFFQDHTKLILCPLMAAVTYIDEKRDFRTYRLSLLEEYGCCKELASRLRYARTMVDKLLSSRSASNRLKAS

Activity: ratio of the luminescence value of each Exemplary Compound treatment group to DMSO treatment group [1] | Compound | IC50 [2] [µM] | IC50 [3] [nM] | cytotoxicity in normal cell line (in words) ([3]; MRC-5 cell line) | IC50 at 5 days [4] [µM] | IC50 at 5 days ([4]; MRC-5 cells (normal cell line)) [µM]
++ (++ <0.6) | Cc1cc(C(=O)NC2CC3(CCN(CC4CCN(c5ccc(C6CCC(=O)NC6=O)cc5F)CC4)CC3)C2)c(F)cc1Nc1ncc2c(n1)N(C(C)C)CC(F)(F)C(=O)N2C (stereo not shown) [Compound 21, 4-((7,7-difluoro-9-isopropyl-5-methyl-6-oxo-6,7,8,9-tetrahydro-5H-pyrimido[4,5-b][1,4]diazepin-2-yl)amino)-N-(7-((1-(4-(2,6-dioxopiperidin-3-yl)-2-fluorophenyl)piperidin-4-yl)methyl)-7-azaspiro[3.5]nonan-2-yl)-2-fluoro-5-methylbenzamide] | < 0.05 | 12600 |  |  | 
++ (++ <0.6) | COc1cc(C(=O)NC2CCN(C3CC4(CCN(c5ccc(C6CCC(=O)NC6=O)cc5F)CC4)C3)CC2)ccc1Nc1ncc2c(n1)N(C(C)C)CC(F)(F)C(=O)N2C (stereo not shown) [Compound 39, 4-((7,7-difluoro-9-isopropyl-5-methyl-6-oxo-6,7,8,9-tetrahydro-5H-pyrimido[4,5-b][1,4]diazepin-2-yl)amino)-N-(1-(7-(4-(2,6-dioxopiperidin-3-yl)-2-fluorophenyl)-7-azaspiro[3.5]nonan-2-yl)piperidin-4-yl)-3-methoxybenzamide] | < 0.05 | 5800 |  |  | 
++ (++ <0.6) | COc1cc(C(=O)N[C@H]2CC[C@H](N(C)CCN3CCN(c4ccc(C5CCC(=O)NC5=O)cc4F)CC3)CC2)ccc1Nc1ncc2c(n1)N(C(C)C)CC(F)(F)C(=O)N2C (stereo partly shown) [Compound 9, 4-((7,7-difluoro-9-isopropyl-5-methyl-6-oxo-6,7,8,9-tetrahydro-5H-pyrimido[4,5-b][1,4]diazepin-2-yl)amino)-N-((1r,4r)-4-((2-(4-(4-(2,6-dioxopiperidin-3-yl)-2-fluorophenyl)piperazin-1-yl)ethyl)(methyl)amino)cyclohexyl)-3-methoxybenzamide] | < 0.05 | 16600 |  |  | 
++ (++ <0.6) | COc1cc(C(=O)N[C@H]2CC[C@H](N(C)CCN3CCN(c4c(F)cc(C5CCC(=O)NC5=O)cc4F)CC3)CC2)ccc1Nc1ncc2c(n1)N(C(C)C)CC(F)(F)C(=O)N2C (stereo partly shown) [Compound 10, 4-((7,7-difluoro-9-isopropyl-5-methyl-6-oxo-6,7,8,9-tetrahydro-5H-pyrimido[4,5-b][1,4]diazepin-2-yl)amino)-N-((1r,4r)-4-((2-(4-(4-(2,6-dioxopiperidin-3-yl)-2,6-difluorophenyl)piperazin-1-yl)ethyl)(methyl)amino)cyclohexyl)-3-methoxybenzamide] | < 0.05 | 15600 |  |  | 
+++ (+++: <0.3) | COc1cc(C(=O)NC2CCC(N(C)CC3CCN(c4ccc(C5CCC(=O)NC5=O)cc4F)CC3)CC2)ccc1Nc1ncc2c(n1)N(C(C)C)CC(F)(F)C(=O)N2C (stereo not shown) [Compound 7, 4-((7,7-difluoro-9-isopropyl-5-methyl-6-oxo-6,7,8,9-tetrahydro-5H-pyrimido[4,5-b][1,4]diazepin-2-yl)amino)-N-((1r,4r)-4-(((1-(4-(2,6-dioxopiperidin-3-yl)-2-fluorophenyl)piperidin-4-yl)methyl)(methyl)amino)cyclohexyl)-3-methoxybenzamide] | < 0.03 | 13000 |  |  | 
 | CC[C@@H]1C(=O)N(C)c2cnc(Nc3ccc(C(=O)NCCOCCOCCNc4cccc5c4C(=O)N(C4CCC(=O)NC4=O)C5=O)cc3OC)nc2N1C1CCCC1 (stereo partly shown) [Comparative Compound 1, reference compound] |  |  | high level of cytotoxicity in normal cell line |  | 
++ (++ <0.6) | COc1cc(C(=O)NC2CC3(CCN(CC4CCN(c5ccc(C6CCC(=O)NC6=O)cc5)CC4)CC3)C2)ccc1Nc1ncc2c(n1)N(C(C)C)CC(F)(F)C(=O)N2C (stereo not shown) [Compound 19, 4-((7,7-difluoro-9-isopropyl-5-methyl-6-oxo-6,7,8,9-tetrahydro-5H-pyrimido[4,5-b][1,4]diazepin-2-yl)amino)-N-(7-((1-(4-(2,6-dioxopiperidin-3-yl)phenyl)piperidin-4-yl)methyl)-7-azaspiro[3.5]nonan-2-yl)-3-methoxybenzamide] | < 0.03 | 13100 |  |  | 
++ (++ <0.6) | COc1cc(C(=O)NC2CC(N(C)CCC3CCN(c4cccc(C5CCC(=O)NC5=O)c4)CC3)C2)ccc1Nc1ncc2c(n1)N(C(C)C)CC1(CC1)C(=O)N2C (stereo not shown) [Compound 6, N-(3-((2-(1-(3-(2,6-dioxopiperidin-3-yl)phenyl)piperidin-4-yl)ethyl)(methyl)amino)cyclobutyl)-4-((9′-isopropyl-5′-methyl-6′-oxo-5′,6′,8′,9′-tetrahydrospiro[cyclopropane-1,7′-pyrimido[4,5-b][1,4]diazepin]-2′-yl)amino)-3-methoxybenzamide] | < 0.4 | 12300 |  |  | 
++ (++ <0.6) | COc1cc(C(=O)NC2CC3(CCN(CC4CCN(c5ccc(C6CCC(=O)NC6=O)cc5F)CC4)CC3)C2)c(F)cc1Nc1ncc2c(n1)N(C(C)C)CC(F)(F)C(=O)N2C (stereo not shown) [Compound 14, 4-((7,7-difluoro-9-isopropyl-5-methyl-6-oxo-6,7,8,9-tetrahydro-5H-pyrimido[4,5-b][1,4]diazepin-2-yl)amino)-N-(7-((1-(4-(2,6-dioxopiperidin-3-yl)-2-fluorophenyl)piperidin-4-yl)methyl)-7-azaspiro[3.5]nonan-2-yl)-2-fluoro-5-methoxybenzamide] | < 0.05 | 14700 |  |  | 
++ (++ <0.6) | COc1cc(C(=O)NC2CCN(CC3CN(c4ccc(C5CCC(=O)NC5=O)cc4F)C3)CC2)ccc1Nc1ncc2c(n1)N(C(C)C)CC(F)(F)C(=O)N2C (stereo not shown) [Compound 12, 4-((7,7-difluoro-9-isopropyl-5-methyl-6-oxo-6,7,8,9-tetrahydro-5H-pyrimido[4,5-b][1,4]diazepin-2-yl)amino)-N-(1-((1-(4-(2,6-dioxopiperidin-3-yl)-2-fluorophenyl)azetidin-3-yl)methyl)piperidin-4-yl)-3-methoxybenzamide] | < 0.05 | 24600 |  |  | 
++ (++ <0.6) | COc1cc(C(=O)NC2CC3(CCN(CC4CCN(c5c(F)cc(C6CCC(=O)NC6=O)cc5F)CC4)CC3)C2)ccc1Nc1ncc2c(n1)N(C(C)C)CC(F)(F)C(=O)N2C (stereo not shown) [Compound 15, 4-((7,7-difluoro-9-isopropyl-5-methyl-6-oxo-6,7,8,9-tetrahydro-5H-pyrimido[4,5-b][1,4]diazepin-2-yl)amino)-N-(7-((1-(4-(2,6-dioxopiperidin-3-yl)-2,6-difluorophenyl)piperidin-4-yl)methyl)-7-azaspiro[3.5]nonan-2-yl)-3-methoxybenzamide] | < 0.03 | 17700 |  |  | 
+++ (+++: <0.3) | COc1cc(C(=O)NN2CCC(CCN3CCN(c4ccc(C5CCC(=O)NC5=O)cc4F)CC3)CC2)ccc1Nc1ncc2c(n1)N(C(C)C)CC(F)(F)C(=O)N2C (stereo not shown) [Compound 45, 4-((7,7-difluoro-9-isopropyl-5-methyl-6-oxo-6,7,8,9-tetrahydro-5H-pyrimido[4,5-b][1,4]diazepin-2-yl)amino)-N-(4-(2-(4-(4-(2,6-dioxopiperidin-3-yl)-2-fluorophenyl)piperazin-1-yl)ethyl)piperidin-1-yl)-3-methoxybenzamide] | < 0.03 |  |  |  | > 10

Compound | Activity: ratio of the luminescence value of each Exemplary Compound treatment group to DMSO treatment group [1] | IC50 [2] [µM] | IC50 [3] [nM] | cytotoxicity in normal cell line (in words) ([3]; MRC-5 cell line) | IC50 at 5 days [4] [µM] | IC50 at 5 days ([4]; MRC-5 cells (normal cell line)) [µM]
COc1cc(C(=O)NC2CC3(CCN(CC4(O)CCN(c5ccc(C6CCC(=O)NC6=O)cc5F)CC4)CC3)C2)ccc1Nc1ncc2c(n1)N(C(C)C)CC(F)(F)C(=O)N2C (stereo not shown) [Compound 33, 4-((7,7-difluoro-9-isopropyl-5-methyl-6-oxo-6,7,8,9-tetrahydro-5H-pyrimido[4,5-b][1,4]diazepin-2-yl)amino)-N-(7-((1-(4-(2,6-dioxopiperidin-3-yl)-2-fluorophenyl)-4-hydroxypiperidin-4-yl)methyl)-7-azaspiro[3.5]nonan-2-yl)-3-methoxybenzamide] | ++ (++ <0.6) | < 0.03 |  |  | > 10 | 
COc1cc(C(=O)NC2CC3(CCN(CC4CCN(c5ccc(C6CCC(=O)NC6=O)cc5OC)CC4)CC3)C2)ccc1Nc1ncc2c(n1)N(C(C)C)CC(F)(F)C(=O)N2C (stereo not shown) [Compound 36, 4-((7,7-difluoro-9-isopropyl-5-methyl-6-oxo-6,7,8,9-tetrahydro-5H-pyrimido[4,5-b][1,4]diazepin-2-yl)amino)-N-(7-((1-(4-(2,6-dioxopiperidin-3-yl)-2-methoxyphenyl)piperidin-4-yl)methyl)-7-azaspiro[3.5]nonan-2-yl)-3-methoxybenzamide] | ++ (++ <0.6) | < 0.03 |  |  | > 10 | 
